This experiment has as its system ALP in normal human articular chondrocytes (NHACs). In words: Alkaline Phosphatase (ALP) activity assay (staining and quantitation) in NHACs, prevention of chondrocyte hypertrophy. It counts as cell-based. The following applies: human IL-1 beta 10 ng/mL, 12 days; for IC50: Fast Blue RR staining, high content imaging, read-out: ALP in NHAC IC50; for Emax / ALP in NHAC (% Efficacy): value in parentheses; for Emax: read-out: ALP in NHAC (% Efficacy). In outline: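 Primary human articular chondrocytes plated at 7,500 cells/well in DMEM with 10% FBS alongside test compound, incubated 5 h at 37 °C, then given IL-1β (10 ng/mL final) for 12 days. Fixed cells stained for ALP with Fast Blue RR/naphthol AS-MX, Hoechst counterstain. Read by fluorescence imaging (561 nm) and/or high-content cell scoring.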

Like-named read-outs stand apart in the source and are kept apart here.

For orientation: IC50 means the concentration that gives 50% inhibition. Turning to `O=C(Nc1cc(C(F)(F)F)ccc1F)[C@@H]1[C@@H](c2cccc(C(F)(F)F)c2)[C@H]2O[C@@H]1C[C@@H]2O` (racemic) [Example 1, rac-(1R,2R,3S,4R,5S)—N-(2-fluoro-5-(trifluoromethyl)phenyl)-5-hydroxy-3-(3-(trifluoromethylphenyl)-7-oxabicyclo[2.2.1]heptane-2-carboxamide], for the setting “Chondrocyte, 288 h”, the IC50 worked out at 29 µM and the Emax came to 60%.
As to `COc1cc([C@H]2[C@H]3O[C@H](C[C@@H]3O)[C@@H]2C(=O)Nc2cc(C)cc(C(F)(F)F)c2)ccn1` (racemic) [Example 69, rac-(1R,2R,3S,4R,5S)-5-hydroxy-3-(2-methoxypyridin-4-yl)-N-(3-methyl-5-(trifluoromethylphenyl)-7-oxabicyclo[2.2.1]heptane-2-carboxamide], where the note is “Chondrocyte, 288 h”, the 50% inhibitory concentration (IC50) was 25 µM and the Emax was 29%.
As to `Cn1cc([C@H]2[C@H]3O[C@H](C[C@@H]3O)[C@@H]2C(=O)Nc2ccc(C(F)(F)F)c(F)c2)c(C(F)(F)F)n1` (racemic) [Example 55, rac-(1R,2R,3S,4R,5S)—N-(3-fluoro-4-(trifluoromethylphenyl)-5-hydroxy-3-(1-methyl-3-(trifluoromethyl)-1H-pyrazol-4-yl)-7-oxabicyclo[2.2.1]heptane-2-carboxamide], under “Chondrocyte, 288 h”, the IC50 is 16 µM and the Emax amounted to 65%.
`Cn1cc([C@H]2[C@H]3O[C@H](C[C@@H]3O)[C@@H]2C(=O)Nc2ccc(C#N)c(C(F)(F)F)c2)c(C(F)(F)F)n1` (racemic) [Example 51, rac-(1R,2R,3S,4R,5S)—N-(4-cyano-3-(trifluoromethyl)phenyl)-5-hydroxy-3-(1-methyl-3-(trifluoromethyl-1H-pyrazol-4-yl)-7-oxabicyclo[2.2.1]heptane-2-carboxamide]: where the note is “Chondrocyte, 288 h”, the half-maximal inhibitory concentration (IC50) is > 30 µM and the Emax is 34%.
As to `Cn1nc(C(F)(F)F)cc1[C@H]1[C@H]2O[C@H](C[C@@H]2O)[C@@H]1C(=O)Nc1cc(C(F)(F)F)ccc1C#N` (single isomer, unassigned) [Example 72b, (1R,2R,3S,4R,5S)—N-(2-cyano-5-(trifluoromethyl)phenyl)-5-hydroxy-3-(1-methyl-3-(trifluoromethyl)-1H-pyrazol-5-yl)-7-oxabicyclo[2.2.1]heptane-2-carboxamide or (1S,2S,3R,4S,5R)—N-(2-cyano-5-(trifluoromethyl)phenyl)-5-hydroxy-3-(1-methyl-3-(trifluoromethyl)-1-pyrazol-5-yl)-7-oxabicyclo[2.2.1]heptane-2-carboxamide], for the setting “listed as 72?”, the half-inhibitory concentration (IC50) came to 1.8 µM and the “ALP in NHAC (% Efficacy)” value worked out at 88%.
As to `Cc1ccc(NC(=O)[C@@H]2[C@@H](c3cc(C(F)(F)F)nn3C)[C@H]3O[C@@H]2C[C@@H]3O)cc1C(F)(F)F` (racemic) [Example 60, rac-(1R,2R,3S,4R,5S)-5-hydroxy-3-(1-methyl-3-(trifluoromethyl)-1H-pyrazol-5-yl)-N-(4-methyl-3-(trifluoromethyl)phenyl)-7-oxabicyclo[2.2.1]heptane-2-carboxamide], for the setting “Chondrocyte, 288 h”, the concentration for half-maximal inhibition (IC50) was determined as 13 µM and the Emax stood at 81%.
On to `Cc1cc(NC(=O)[C@@H]2[C@@H](c3ccnc(C(F)(F)F)c3)[C@H]3O[C@@H]2C[C@@H]3O)cc(C(F)(F)F)c1` (racemic) [Example 65, rac-(1R,2R,3S,4R,5S)-5-hydroxy-N-(3-methyl-5-(trifluoromethyl)phenyl)-3-(2-(trifluoromethyl)pyridin-4-yl)-7-oxabicyclo[2.2.1]heptane-2-carboxamide], for which, for the setting “Chondrocyte, 288 h”, the IC50 is 20 µM and the Emax is 57%.
For the molecule `O=C(Nc1ccc(C(F)(F)F)c(Cl)n1)[C@@H]1[C@@H](c2cccc(C(F)(F)F)c2)[C@H]2O[C@@H]1C[C@@H]2O` (single isomer, unassigned) [Example 25a, (1R,2R,3S,4R,5S)—N-(6-chloro-5-(trifluoromethyl)pyridin-2-yl)-5-hydroxy-3-(3-(trifluoromethyl)phenyl)-7-oxabicyclo[2.2.1]heptane-2-carboxamide or (1S,2S,3R,4S,5R)—N-(6-chloro-5-(trifluoromethylpyridin-2-yl)-5-hydroxy-3-(3-(trifluoromethyl)phenyl)-7-oxabicyclo[2.2.1]heptane-2-carboxamide], the half-inhibitory concentration (IC50) was determined as 0.55 µM and the “ALP in NHAC (% Efficacy)” value came out at 89%.
Regarding `O=C(Nc1cc(C(F)(F)F)cc(C2CC2)n1)[C@@H]1[C@@H](c2cccc(C(F)(F)F)c2)[C@H]2O[C@@H]1C[C@@H]2O` (racemic) [Example 7, rac-(1R,2R,3S,4R 5S)—N-(6-cyclopropyl-4-(trifluoromethyl)pyridin-2-yl)-5-hydroxy-3-(3-(trifluoromethyl)phenyl)-7-oxabicyclo[2.2.1]heptane-2-carboxamide], where the note is “Chondrocyte, 288 h”, the half-inhibitory concentration (IC50) is > 30 µM and the Emax stood at 12%.
Turning to `O=C(Nc1ccc(F)c(C(F)(F)F)c1)[C@@H]1[C@@H](c2cccc(C(F)(F)F)c2)[C@H]2O[C@@H]1C[C@@H]2O` (racemic) [Example 16, rac-(1R,2R,3S,4R,5S)—N-(4-fluoro-3-(trifluoromethyl)phen)-5-hydroxy-3-(3-(trifluoromethyl)phenyl)-7-oxabicyclo[2.2.1]heptane-2-carboxamide], where the note is “Chondrocyte, 288 h”, the concentration for half-maximal inhibition (IC50) was determined as 12 µM and the Emax was 105%.
As for `O=C(Nc1ccc(N2CCOCC2)c(C(F)(F)F)c1)[C@@H]1[C@@H](c2cccc(C(F)(F)F)c2)[C@H]2O[C@@H]1C[C@@H]2O` (racemic) [Example 23, rac-(1R,2R,3S,4R,5S)-5-hydroxy-N-(4-morpholino-3-(trifluoromethyl)phenyl)-3-(3-(trifluoromethyl)phenyl)-7-oxabicyclo[2.2.1]heptane-2-carboxamide], where the note is “Chondrocyte, 288 h”, the IC50 amounted to 17 µM and the Emax turned out to be 108%.
Regarding `CC(C)n1cc([C@H]2[C@H]3O[C@H](C[C@@H]3O)[C@@H]2C(=O)Nc2ccc(C(F)(F)F)c(Cl)c2)c(C(F)(F)F)n1` (racemic) [Example 87, rac-(1R,2R,3S,4R,5S)—N-(3-chloro-4-trifluoromethyl)phenyl)-5-hydroxy-3-(1-isopropyl-3-(trifluoromethyl)-1H-pyrazol-4-yl)-7-oxabicyclo[2.2.1]heptane-2-carboxamide], where the note is “Chondrocyte, 288 h”, the concentration for half-maximal inhibition (IC50) came to 14 µM and the Emax amounted to 64%.
Consider `O=C(Nc1cc(Cl)cc(C(F)(F)F)c1)[C@@H]1[C@@H](c2cccc(C(F)(F)F)c2)[C@H]2O[C@@H]1C[C@@H]2O` (racemic) [Example 19, rac-(1R,2R,3S,4R,5)-N-(3-chloro-5-(trifluoromethyl)phenyl)-5-hydroxy-3-(3-(trifluoromethyl)phenyl)-7-oxabicyclo[2.2.1]heptane-2-carboxamide], for which, for the setting “Chondrocyte, 288 h”, the 50% inhibitory concentration (IC50) turned out to be 11 µM and the Emax is 102%.
In the same order, the values of `Cc1cc(NC(=O)[C@@H]2[C@@H](c3cn(C(C)C)nc3C(F)(F)F)[C@H]3O[C@@H]2C[C@@H]3O)cc(C(F)(F)F)c1` (racemic) [Example 88, rac-(1R,2R,3S,4R,5S)-5-hydroxy-3-(1-isopropyl-3-(trifluoromethyl)-1H-pyrazol-4-yl)-N-(3-methyl-5-(trifluoromethyl)phenyl)-7-oxabicyclo[2.2.1]heptane-2-carboxamide] are > 30 µM and 20%.
For `O=C(Nc1ccc(C(F)(F)F)c(Cl)n1)[C@@H]1[C@@H](c2cccc(C(F)(F)F)c2)[C@H]2O[C@@H]1C[C@@H]2O` (racemic) [Example 25, rac-(1R,2R,3S,4R,5S)—N-(6-chloro-5-(trifluoromethyl)pyridin-2-yl)-5-hydroxy-3-(3-(trifluoromethyl)phenyl)-7-oxabicyclo[2.2.1]heptane-2-carboxamide], where the note is “Chondrocyte, 288 h”, the half-inhibitory concentration (IC50) was 2.9 µM and the Emax is 112%.
With `Cc1ccc(NC(=O)[C@@H]2[C@@H](c3cn(C(C)C)nc3C(F)(F)F)[C@H]3O[C@@H]2C[C@@H]3O)cc1C(F)(F)F` (racemic) [Example 89, rac-(1R,2R,3S,4R,5S)-5-hydroxy-3-(1-isopropyl-3-trifluoromethyl)-1H-pyrazol-4-yl)-N-(4-methyl-3-(trifluoromethyl)phenyl)-7-oxabicyclo[2.2.1]heptane-2-carboxamide], where the note is “Chondrocyte, 288 h”, the IC50 is 19 µM and the Emax is 40%.
As to `CC(C)n1cc([C@H]2[C@H]3O[C@H](C[C@@H]3O)[C@@H]2C(=O)Nc2cccc(C(F)(F)F)c2)c(C(F)(F)F)n1` (racemic) [Example 59, rac-(1R,2R,3S,4R,5S)-5-hydroxy-3-(1-isopropyl-3-(trifluoromethyl)-1H-pyrazol-4-yl)-N-(3-(trifluoromethyl)phenyl)-7-oxabicyclo[2.2.1]heptane-2-carboxamide], where the note is “Chondrocyte, 288 h”, the half-inhibitory concentration (IC50) was found to be 14 µM and the Emax stood at 70%.
For “rac-(1R 2R,3S,4R,5S)—N-(4-fluoro-3-(trifluoromethyl)phenyl-5-hydroxy-3-(1-methyl-3-(trifluoromethyl)-1H-pyrazol-4-yl)-7-oxabicyclo[2.2.1]heptane-2-carboxamide [Example 56]”, the IC50 was > 30 µM and the “ALP in NHAC (% Efficacy)” value is 32%.
In the case of `Cn1cc([C@H]2[C@H]3O[C@H](C[C@@H]3O)[C@@H]2C(=O)Nc2ccc(C(F)(F)F)c(Cl)c2)c(C(F)(F)F)n1` (racemic) [Example 58, rac-(1R,2R,3S,4R,5S)—N-(3-chloro-4-(trifluoromethyl)phenyl)-5-hydroxy-3-(1-methyl-3-(trifluoromethyl)-1H-pyrazol-4-yl)-7-oxabicyclo[2.2.1]heptane-2-carboxamide], for the setting “Chondrocyte, 288 h”, the half-maximal inhibitory concentration (IC50) worked out at 10 µM and the Emax was 102%.

(Values after patent publication US12257243B2, “5-hydroxy-7-oxabicyclo[2.2.1]heptane-2-carboxamide derivatives for inducing chondrogenesis for treating joint damage” (NOVARTIS AG, priority 2018, dated 2025).)
